Several values for one entry are separate records, joined by “and”; a condition that tells them apart may be missing. Equal values may be shown once.
Target: T1, NS3 (West Nile virus, UniProt K4FQI5)
T1 sequence (K4FQI5 whole entry): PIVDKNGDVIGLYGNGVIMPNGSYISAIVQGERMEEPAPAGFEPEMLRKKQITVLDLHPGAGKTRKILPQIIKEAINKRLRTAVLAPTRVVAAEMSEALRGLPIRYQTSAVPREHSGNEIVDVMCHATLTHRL
Assay: Functional biochemical assay to identify treatments for viral infectious disease that targets West Nile NS2B-NS3 protease. Utilizing a direct enzyme activity measurement method, reading the fluorescence intensity is used to characterize the relative potency of inhibitors as IC50.
Design: species or system NY-99

| Compound | IC50 |
| --- | --- |
| O=C(Nc1ccc2c(c1)B(O)OC2)c1cccc(OCc2c(Cl)cccc2Cl)c1 | > 99.5 µM |
| CCn1c(=O)c(N2CC[C@@H](CO)C2)nc2ccccc21 | > 99.5 µM |
| C=CC[C@H](Nc1cc(Cl)cc(NC(=O)OCc2ccccc2)c1)c1cccc(-c2nn[nH]n2)c1 | 14.4 µM |
| O=C(Nc1ccc2c(c1)CNCCO2)c1cc(Cl)cc2[nH]ncc12 | 19.6 µM |
| CC(C)(C)c1nc2c(C(=O)Nc3ccc4c(c3)CNC4)cc(Br)cc2[nH]1 | > 99.5 µM |
| N#Cc1cccc(-c2nc3c(C(=O)Nc4ccc5c(c4)CNC5)cc(F)cc3[nH]2)c1 | 3.76 µM |
| CCc1cc2c(cc1NC(=O)c1cc(F)cc3[nH]ncc13)CNC2 | 1.59 µM |
| O=C(Nc1ccc2c(c1)CNC2)c1cc(Cl)cc2[nH]c(-c3nc4c(s3)CCC4)nc12 | 40.3 µM |
| O=C(Nc1ccc2c(c1)CNC2)c1cc(Cl)cc2ccncc12 | 9.68 µM |
| CC(=O)Nc1cccc(C(=O)Nc2ccc3c(c2)CNC3)c1 | 30.6 µM |
| CCc1ccc(-c2nc3c(C(=O)Nc4ccc5c(c4)CNC5)cc(Cl)cc3[nH]2)cc1 | 32 µM |
| CNC(=O)c1cc(Cl)c(F)cc1NS(=O)(=O)c1ccc(Oc2ccccc2Cl)cc1 | 30.6 µM |
| O=C(NS(=O)(=O)C1CC1)c1cc(Cl)ccc1NS(=O)(=O)c1ccc(Oc2ccccc2Cl)cc1 | 75.6 µM |
| CC(C)n1cc2c(C(=O)Nc3ccc4c(c3)CNC4)cc(Cl)cc2n1 | 1.73 µM |
| N#Cc1cc(Cl)cc(C(=O)Nc2ccc3c(c2)CNC3)c1 | 54.9 µM |
| N=C(N)Nc1ccc(OC(=O)Nc2ccccc2)cc1 | > 100 µM |
| O=C(O)c1cc2c(cc1NS(=O)(=O)c1ccc(Oc3ccccc3Cl)cc1)CCC2 | 16.4 µM |
| O=C(O)c1cc(Cl)c(F)cc1S(=O)(=O)Nc1ccc(Oc2ccccc2Cl)cc1 | 32.6 µM |
| O=C(Nc1ccc2c(c1)CNC2)c1cc(F)cc(-c2cn[nH]c2)c1 | 0.691 µM |
| CSCCNC(=O)[C@H](Nc1ccc2c(c1)CNC2)c1cc(Cl)cc(C2CC2)c1 | 0.514 µM |
| COc1ccc(Cl)cc1[C@H](Nc1ccc2c(c1)CNC2)C(=O)NCC(F)F | 0.531 µM |
| C=CC[C@H]1NCc2cc(N[C@H](C(=O)NCC(F)F)c3cc(Cl)cc(C4CC4)c3)ccc21 | 0.289 µM |
| N#Cc1cc2c(cc1NC(=O)c1cc(F)cc3[nH]ncc13)CNC2 | 0.242 µM |

| Compound | IC50 |
| --- | --- |
| O=C(Nc1ccc2c(c1)CNC2)c1cc(F)cc2c1CCC2 | 4.41 µM |
| N=C(N)NCc1ccc(NC(=O)Oc2ccccc2)cc1 | > 100 µM |
| O=C(NCC(F)F)[C@H](Nc1ccc2c(c1)CNC2)c1cc(Cl)cc2ccoc12 | 0.185 µM |
| O=C(Nc1ccc2c(c1)CNC2)c1cc(F)cc2nn(-c3ccccn3)nc12 | 7.11 µM |
| C=Cc1cc2c(cc1NC(=O)c1cc(F)cc3[nH]ncc13)CNC2 | 0.489 µM |
| C#Cc1cc(Cl)cc(C(=O)Nc2ccc3c(c2)CNC3)c1 | 58.6 µM |
| O=C(Nc1ccc2c(c1)CNC2)c1cccc2cn[nH]c12 | 9.75 µM |
| CC(C)CNC(=O)c1cc(Cl)ccc1NS(=O)(=O)c1ccc(Oc2ccccc2Cl)cc1 | > 99.5 µM |
| O=C1Cc2c(cccc2C(=O)Nc2ccc3c(c2)CNCCC3)N1 | 2.15 µM |
| N#Cc1cc(C(=O)Nc2ccc3c(c2)CNC3)cc(C(F)(F)F)c1 | 98.1 µM |
| O=C(Nc1ccccc1)OCc1ccccc1 [BENZYL PHENYLCARBAMATE] | > 100 µM |
| COc1cc(C#N)cc([C@H](Nc2ccc3c(c2)CNC3)C(=O)NCC(F)F)c1 | 0.243 µM |
| COCc1cc(Cl)cc([C@H](Nc2ccc3c(c2)CNC3)C(=O)NCC(F)F)c1 | 0.154 µM |
| O=C(Nc1ccc2c(c1)CNC2)c1cc(Cl)cc(C(F)(F)F)n1 | 40.1 µM |
| O=C(Nc1ccc2c(c1)CNCC2)c1cc(Cl)cc2[nH]ncc12 | 26.3 µM |
| COC(=O)c1cc2c(cc1NC(=O)c1cc(F)cc3[nH]ncc13)CNC2 | 1 µM |
| O=C(Nc1cc2c(c(-c3ccnnc3)c1)CNC2)c1cc(Cl)cc2[nH]ncc12 | 3.06 µM |
| N=C(N)NCCc1ccc(OC(=O)Nc2ccccc2)cc1 | > 100 µM |
| O=C(NCC(F)(F)F)c1cc(Cl)c(F)cc1NS(=O)(=O)c1ccc(Oc2ccccc2Cl)cc1 | 9.32 µM |
| Cc1cc(-c2cc(F)cc(C(=O)Nc3ccc4c(c3)CNC4)c2)[nH]n1 | 3.74 µM |
| O=C(Nc1cc(Cl)cc(C(=O)Nc2ccc3c(c2)CCNC3)c1)OCc1ccccc1 | 49.5 µM |
| O=C(NCC(F)F)[C@H](Nc1ccc2c(c1)CNC2)c1cc(Cl)ccc1Sc1ccccc1 | 9.51 µM |
| NCc1cccc(NC(=O)c2cc(Cl)cc(CN)c2)c1 | 9.79 µM |

| Compound | IC50 |
| --- | --- |
| O=C(NCC(F)F)[C@H](Nc1ccc2c(c1)CNC2)c1cc(Cl)cc2c1CCC2 | 0.42 µM |
| Cc1[nH]c2ccccc2c1CN1CCC(c2nc3ccccc3s2)CC1 | > 99.5 µM |
| CCOCC1(c2nc3c(C(=O)Nc4ccc5c(c4)CNC5)cc(F)cc3[nH]2)CC1 | 9.95 µM |
| O=C(Nc1cc(Cl)cc(C(=O)Nc2ccc3c(c2)CNC3)c1)OCc1ccccc1 | 17.7 µM and 48.4 µM and 25.2 µM |
| Cc1ccccc1-c1nc2c(C(=O)Nc3ccc4c(c3)CNC4)cc(F)cc2[nH]1 | 8.51 µM |
| CC(C)CNC(=O)c1cc(Cl)c(F)cc1NS(=O)(=O)c1ccc(Oc2ccccc2Cl)cc1 | 24.9 µM |
| O=C(NCC(F)F)[C@H](Nc1ccc2c(c1)CNC2)c1cc(Cl)ccc1Cl | 3.01 µM |
| O=C(Nc1ccc2c(c1)CNC2)c1cc(F)cc2[nH]ncc12 | 1.42 µM |
| Cn1ncc2c(C(=O)Nc3ccc4c(c3)CNC4)cc(Br)cc21 | 47.2 µM |
| Cc1cc(-c2ccc([C@@H](NC(=O)OCc3ccccc3)C(=O)Nc3cccc(CN)c3)cc2)cs1 | 3.42 µM |
| O=C1Cc2c(cccc2C(=O)Nc2ccc3c(c2)CNC3)N1 | 6.16 µM |
| C=CC[C@H]1NCc2cc(NC(=O)c3cc(Cl)cc4[nH]ncc34)ccc21 | 14.1 µM |
| C[C@]1(O)C(=O)Nc2cc(F)cc(C(=O)Nc3ccc4c(c3)CNC4)c21 | 5.58 µM |
| O=C(Nc1ccc2c(c1)CNC2)c1cc(Br)cc2c1OCO2 | > 99.5 µM |
| NCc1cccc(NC(=O)c2cc(Br)cc3[nH]ccc23)c1 | > 99.5 µM |
| Cc1ccc(NC(=O)c2cc(Cl)cc(NC(=O)OCc3ccccc3)c2)cc1CN | 60.7 µM |
| N#CCCNC(=O)[C@H](Nc1ccc2c(c1)CNC2)c1cc(Cl)cc(C2CC2)c1 | 0.43 µM |
| N#Cc1ccc(-c2nc3c(C(=O)Nc4ccc5c(c4)CNC5)cc(F)cc3[nH]2)cc1 | 2.91 µM |
| Cc1[nH]c2ccccc2c1CN1CCC(c2c[nH]c3ncccc23)CC1 | > 99.5 µM |
| O=C(Nc1ccc2c(c1)CNC2)c1cc(F)cc(-c2ccc3c(=O)[nH]ncc3c2)c1 | 5.15 µM |
| NCc1cccc(NC(=O)c2cc(Cl)cc(-n3cccc3)c2)c1 | > 99.5 µM |
| NCc1cccc(NC(=O)C[C@H](NC(=O)OCc2ccccc2)c2ccc(OCc3ccccc3)c(Br)c2)c1 | 8.65 µM |
| N=C(N)Nc1ccc(NC(=O)Oc2ccccc2)cc1 | > 100 µM |

| Compound | IC50 |
| --- | --- |
| O=C(NC1CCOCC1)[C@H](Nc1ccc2c(c1)CNC2)c1cc(Cl)cc(C2CC2)c1 | 0.186 µM |
| O=C(Nc1ccc2c(c1)CNC2)c1cc(Br)cc2[nH]c([C@H]3CCCO3)nc12 | > 99.5 µM |
| O=C(Nc1ccc2c(c1)CNC2)c1cccc2nc(O)ccc12 | 6.71 µM |
| NCc1cccc(NC(=O)c2cc(Cl)cc(NC(=O)OCc3ccccc3)c2)c1 | 22.9 µM |
| N[C@H]1CCc2cc(NC(=O)c3cc(Cl)cc(NC(=O)OCc4ccccc4)c3)ccc21 | 45.1 µM |
| CCn1c(=O)c(N2C[C@H]3CCS(=O)(=O)[C@H]3C2)nc2ccccc21 | > 99.5 µM |
| O=C(Nc1ccc2c(c1)CNC2)c1cc(F)cc(C=C2CCS(=O)(=O)CC2)c1 | 14.5 µM |
| O=C(Nc1ccc2c(c1)CNC2)c1cc(Cl)cc2ccccc12 | 14.7 µM |
| CCCCNC(=O)[C@H](Nc1ccc2c(c1)CNC2)c1cc(Cl)cc(C2CC2)c1 | 0.295 µM |
| O=C(Nc1cc2c(c(C3=CC[C@H](O)CC3)c1)CNC2)c1cc(Cl)cc2[nH]ncc12 | 3.82 µM |
| O=C(Nc1ccc2c(c1)CNC2)c1cc(Br)cc2[nH]c([C@H]3CCOC3)nc12 | 92.3 µM |
| O=C(Nc1ccc2c(c1)CNC2)c1cc(Cl)cc2[nH]c(COc3ccccn3)nc12 | > 99.5 µM |
| O=C(Nc1ccc2c(c1)CNC2)c1cc(Cl)cc2nn(-c3ccccc3)nc12 | 21.5 µM |
| Cc1ncc(-c2cc(F)cc(C(=O)Nc3ccc4c(c3)CNC4)c2)o1 | 6.67 µM |
| CCOC(=O)c1ncoc1CNC(=O)[C@H](Nc1ccc2c(c1)CNC2)c1cc(Cl)cc(C2CC2)c1 | 3.04 µM |
| N#Cc1cc(Cl)cc([C@H](C#N)Nc2ccc3c(c2)CNC3)c1 | 98.5 µM |
| O=C(Nc1ccc2c(c1)CNC2)c1cc(F)cc(-c2cccnc2)c1 | 2.68 µM |
| C=CC[C@H]1NCc2cc(NC(=O)c3cc(F)cc4c3CC(=O)N4)ccc21 | 1.92 µM |
| Cc1cc(C(=O)Nc2ccc3c(c2)CNC3)cc2nc[nH]c12 | 12.5 µM |
| O=C(Nc1ccc2c(c1)CNC2)c1cc(F)cc2[nH]c(-c3cnccc3O)nc12 | 9.93 µM |
| CNC(=O)[C@H](Nc1ccc2c(c1)CNC2)c1cc(Cl)cc(C2CC2)c1 | 0.447 µM |
| CN(C)c1nc(-c2cc(F)cc(C(=O)Nc3ccc4c(c3)CNC4)c2)cs1 | 12.6 µM |
